These results are taken from US12570639B2, “Tetrahydroquinoline derivative and medicinal use thereof” (Toray Industries, Inc., priority 2020, dated 2026).

The structures appear in SMILES notation.

The test system of the first test is Human fibrosarcoma cells (HT-1080 cells). Briefly: In vitro inhibitory action against ferroptosis (Erastin-induced cell death, Cell Counting Kit-8). In kind it is cell-based. As to conditions: evaluation concentration 10 μmol/L, Erastin 3 μmol/L, 24 hours. The procedure:
The inhibitory action against ferroptosis of the tetrahydroquinoline derivative (I) or a pharmaceutically acceptable salt thereof was evaluated with Human fibrosarcoma cells (HT-1080 cells), by using, as an index, the inhibitory action against the cell death induced by treatment with a ferroptosis inducer, Erastin.
HT-1080 cells (ATCC) were cultured in a mixture (hereinafter referred to as vehicle) composed of DMEM/F12 (Thermo Fisher Scientific, Inc.), a final concentration of 10% fetal bovine serum (Thermo Fisher Scientific, Inc.), and a final concentration of 1% penicillin-streptomycin solution (Nacalai Tesque, Inc.). Cells were seeded into 96-well plates (Corning Inc.) at 5×10^4 cells/well and cultured overnight.
A test compound was dissolved in DMSO, and the resulting solution was diluted in the vehicle to a final concentration of 1% DMSO and then used. […] Thirty minutes after the addition of the test compound, Erastin (Cayman Chemical Co.) diluted in the vehicle at a final concentration of 3 μmol/L was added to wells. The wells added with the test compound and Erastin were grouped as “test compound,” and the wells added with no test compound and no Erastin were grouped as “background,” and the wells added with no test compound but with Erastin were grouped as “control.” Twenty-four hours after the addition of Erastin, 5 μL of Cell Counting Kit-8 (Dojindo Laboratories) was added to each well and incubated for 4 hours, and the absorbance at 450 nm was then measured for each well (N=2). […] Ferroptosis inhibition rate (%)=[1−{(Average absorbance value at 450 nm measured when a test compound is added)−(Average absorbance value at 450 nm measured in the background)}/{(Average absorbance value at 450 nm measured in the control)−(Average absorbance value at 450 nm measured in the background)}]×100 Equation 1
In general terms: Tetrazolium dyes change colour on reduction, which living cells bring about.
Regarding `Cc1ccc2c(c1)CCC(c1ccc(C(N)=O)cc1)N2` (stereo not shown) [Example 110, 4-(6-methyl-1,2,3,4-tetra-hydroquinolin-2-yl)benzamide], the “Ferroptosis inhibition rate (%)” value is 103.0%.

With `Cc1ccc2c(c1)CCC(c1ccc(C(N)=O)cc1)N2` (stereo not shown) [Example 111, 4-(6-methyl-1,2,3,4-tetrahydroquinolin-2-yl)benzamide], the “Ferroptosis inhibition rate (%)” value came to 98.91%.

The test is the same for the next values; noted with them: evaluation concentration 30 μmol/L, Erastin 3 μmol/L, 24 hours.
Turning to `OCC1(c2ccccc2)CCc2ccccc2N1` (stereo not shown) [Example 92, (2-phenyl-1,2,3,4-tetrahydroquinolin-2-yl)methanol], the “Ferroptosis inhibition rate (%)” value came to 66.40%.

For `COC(=O)C1(c2ccccc2)CCc2ccccc2N1` (stereo not shown) [Example 93, methyl 2-phenyl-1,2,3,4-tetrahydroquinoline-2-carboxylate], the “Ferroptosis inhibition rate (%)” value is 89.78%.

`COC(=O)CC1(c2ccccc2)CCc2ccccc2N1` (stereo not shown) [Example 94, 2-(2-phenyl-1,2,3,4-tetrahydroquinolin-2-yl)methyl acetate]: the “Ferroptosis inhibition rate (%)” value amounted to 93.68%.

`O=C1Cc2cc(C3CCc4cc(Cl)ccc4N3)ccc2N1` (stereo not shown) [Example 95, 5-(6-chloro-2,3,4,4-tetrahydroquinolin-2-yl)indolin-2-one]: the “Ferroptosis inhibition rate (%)” value was 68.84%.

`Clc1ccc2c(c1)CCC(c1cn[nH]c1)N2` (stereo not shown) [Example 96, 6-chloro-2-(1H-pyrazol-4-yl)-1,2,3,4-tetrahydroquinoline]: the “Ferroptosis inhibition rate (%)” value stood at 98.01%.

As for `Cc1ccc2c(c1)CCC(c1cn[nH]c1)N2` (stereo not shown) [Example 97, 6-methyl-2-(1H-pyrazol-4-yl)-1,2,3,4-tetrahydroquinoline], the “Ferroptosis inhibition rate (%)” value is reported as 83.94%.

Take `Fc1ccc2c(c1)CCC(c1cn[nH]c1)N2` (stereo not shown) [Example 98, 6-fluoro-2-(1H-pyrazol-4-yl)-1,2,3,4-tetrahydroquinoline]: the “Ferroptosis inhibition rate (%)” value was 98.95%.

`Cc1ccc2c(c1)CCC(c1ccc(S(N)(=O)=O)cc1)N2` (stereo not shown) [Example 100, 4-(6-methyl-1,2,3,4-tetrahydroquinolin-2-yl)benzenesulfonamide]: the “Ferroptosis inhibition rate (%)” value stood at 103.5%.

`Cc1ccc2c(c1)CCC(c1ccc3c(c1)CCC(=O)N3)N2` (stereo not shown) [Example 101, 6-methyl-1,2,3,3′,4,4′-hexahydro-[2,6′-biquinolin]-2′(1′H)-one]: the “Ferroptosis inhibition rate (%)” value is 109.6%.

`Cc1ccc2c(c1)CCC(c1ccoc1)N2` (stereo not shown) [Example 102, 2-(furan-3-yl)-6-methyl-1,2,3,4-tetrahydroquinoline]: the “Ferroptosis inhibition rate (%)” value worked out at 77.96%.

Take `Cc1ccc2c(c1)CCC(c1cscn1)N2` (stereo not shown) [Example 103, 4-(6-methyl-1,2,3,4-tetrahydroquinolin-2-yl)thiazole]: the “Ferroptosis inhibition rate (%)” value amounted to 76.76%.

`Cc1ccc2c(c1)CCC(c1cnoc1)N2` (stereo not shown) [Example 104, 4-(6-methyl-1,2,3,4-tetrahydroquinolin-2-yl)isoxazole]: the “Ferroptosis inhibition rate (%)” value stood at 64.65%.

`Cc1ccc2c(c1)CCC(c1ccc(S(N)(=O)=O)c(F)c1)N2` (stereo not shown) [Example 113, 2-fluoro-4-(6-methyl-1,2,3,4-tetrahydroquinolin-2-yl)benzenesulfonamide]: the “Ferroptosis inhibition rate (%)” value is reported as 97.54%.

For `Cc1ccc2c(c1)CCC(c1ccc(NS(N)(=O)=O)cc1)N2` (stereo not shown) [Example 114, N-(4-(6-methyl-1,2,3,4-tetrahydroquinolin-2-yl)phenyl)sulfamoylamine], the “Ferroptosis inhibition rate (%)” value is listed as 87.04%.

For the compound `O=C1NCc2cc(C3CCc4ccccc4N3)ccc21` (stereo not shown) [Example 123, 5-(1,2,3,4-tetrahydroquinolin-2-yl)isoindolin-1-one], the “Ferroptosis inhibition rate (%)” value is reported as 113.4%.

As for `O=C1NCc2cc(C3CCc4ccccc4N3)ccc21` (stereo not shown) [Example 124, 5-(1,2,3,4-tetrahydroquinolin-2-yl)isoindolin-1-one], the “Ferroptosis inhibition rate (%)” value is 106.3%.

With `O=C1CCc2cc(C3CCc4ccccc4N3)ccc2N1` (stereo not shown) [Example 125, 1,2,3,3′,4,4′-hexahydro-[2,6′-biquinolin]-2′(1′H)-one], the “Ferroptosis inhibition rate (%)” value is 102.6%.
